The subject of one test is KB. Briefly: Inhibitory concentration against KB cancer cell lines was determined. It counts as functional, cell-based. The following applies: Homo sapiens.
For the next test, the system named is HL-60. Briefly: Inhibitory concentration against Human leukemia cancer cell (HL-60)lines was determined. It counts as functional, cell-based.
For the next test, the system named is BGC-823. Nature of the test: Inhibitory concentration against Human Gastric cancer cell (BGC)lines was determined. It counts as functional, cell-based. The following applies: BGC-823, Stomach.
The species entered for another test is Homo sapiens. Nature of the test: Inhibitory concentration against Human Gastric cancer cell (BGC) lines was determined. It counts as functional. Particulars: Stomach.
Another test deals with HeLa. Briefly: Inhibitory concentration against Hella cancer cell lines was determined. It counts as functional, cell-based. The following applies: Homo sapiens.

One may read the IC50 as the concentration that inhibits the measured activity by half. A high value points to weaker potency in that assay.

SMILES strings stand for the structures.

In the case of `CCN(CC)CCNC(=O)c1cc2c3ccccc3nc-2c[nH]1`, the IC50 with KB is 250 µM; in the test on HL-60 it was 130 µM; in the test on BGC-823, 98 µM.

As to `NCCCCNC(=O)c1cc2c(cn1)[nH]c1ccccc12`, the results for the IC50 in the test on KB, in the test with HL-60 and in the test with BGC-823 were 4.1 µM, 1.9 µM and 8.6 µM, respectively.

With `O=c1[nH]cc(F)c(=O)[nH]1` [FLUOROURACIL], the IC50 came to 68 µM in the test filed under Homo sapiens, 3.5 µM in the test with KB, 1 µM in the test with HL-60 and 1.6 µM with HeLa.

Regarding `NCCCCCCNC(=O)c1cc2c3ccccc3nc-2c[nH]1`, the 50% inhibitory concentration (IC50) with HL-60 came out at 510 µM.

In the case of `NCCNC(=O)c1cc2c3ccccc3nc-2c[nH]1`, the IC50 with KB was 140 µM; in the test on HL-60 it was 81 µM.

For the compound `CN(C)CCCCNC(=O)c1cc2c3ccccc3nc-2c[nH]1`, the midpoint of inhibition with HeLa, the IC50, lay at 140 µM.

The values above are taken from ChEMBL document CHEMBL1134180, “Synthesis and biological evaluation of DNA targeting flexible side-chain substituted beta-carboline derivatives” (Bioorg Med Chem Lett, 2001).
